Results from the SangsterLogP compilation.

Assay: method code SF-AS, from DOI: 10.1080/01483918708066826

Row | logP | SMILES
1 | 2.49 | O=C(O)C(c1ccccc1F)n1cccc1 (stereo not given)
2 | 2.04 | O=C(O)c1ccccc1-n1cccc1
3 | 2.34 | O=C(O)C(Cc1ccccc1)n1cccc1 (stereo not given)
4 | 1.57 | O=C(O)C(c1ccccc1)n1cccc1 (stereo not given)
5 | 2.08 | O=C(O)C(Cc1ccc(Cl)cc1)n1cccc1 (stereo not given)
6 | 2.04 | O=C(O)C(Cc1ccc(F)cc1)n1cccc1 (stereo not given)
7 | 0.76 | O=C(O)Cc1ccc(-n2cccc2)cc1
8 | 0.7 | O=C(O)Cn1cccc1
9 | 1.56 | O=C(O)C(Cc1ccc(O)cc1)n1cccc1 (stereo not given)
10 | 2.3 | O=C(O)C(c1ccc(Cl)cc1)n1cccc1 (stereo not given)
